# From patent publication EP4715056A1, “BIO-BASED TRANS-ACONITATE, PREPARATION METHOD THEREFOR AND USE THEREOF” (Qingdao Institute of Bioenergy and Bioprocess Technology, …, priority 2023, dated 2024)
# Structures can show the parent of a compound that is named as a salt.
# Assays:
# Type in all cases: physicochemical
# [1] = Acid value (KOH titration); settings: aconitate/citrate products, Table 4
# Method: The aconitates and citrates prepared in the above examples and comparative examples were tested for acid value, purity, chromaticity, yield, triester conversion rate, and water content. […] The mixture was neutralized with 0.02 mol·L^-1 potassium hydroxide aqueous solution until a faint pink color appears, and the consumed volume Vo was recorded. 1 g of the sample (accurate to 0.01 g) was weighed using a ground-neck conical flask, then one portion of the above neutralized solution was added. After the sample was completely dissolved, the sample was titrated with 0.02 mol·L^-1 potassium hydroxide-ethanol standard titration solution (the titration should be completed within 30 seconds) until a faint pink color appeared and persisted for 5 seconds without fading, which was considered as an end point. The consumed volume V was recorded. […] Chromatographic column: C18 column; injector: 10 µL micro-syringe; solvent: acetonitrile (HPLC grade); acquisition time: 15 min; mobile phase: 80% acetonitrile (HPLC grade) and 20% deionized water; injection volume: 1 µL; wavelength: 230 nm.
# [2] = Chromaticity (platinum-cobalt colorimetry); settings: aconitate/citrate products, Table 4; colour comparison at 25°C
# Method: 3. Chromaticity: preparation of 500# platinum-cobalt colorimetric standard stock solution: 1.2450 g of potassium chloroplatinate and 1.0000 g of cobalt chloride were weighed, with an accuracy of 0.0002 g, the mixture was dissolved in 100 mL of hydrochloric acid, and then diluted to 1000 mL with distilled water. This solution is just the 500# colorimetric standard comparison solution.
# Preparation of colorimetric standards below 500#: different amounts of the 500# stock solution was prepared, and diluted with distilled water to the volume of a colorimetric tube to prepare colorimetric standard solutions of any number. The calculation formula is as follows: V = (N×V1)/500 [formula]
# In the formula, V is the volume of the 500# standard stock solution taken to prepare the N# colorimetric standard solution, in mL; V1 is the volume of the colorimetric tube used, in mL; and N is the number of the colorimetric standard solution to be prepared.
# Color comparison determination was performed at 25°C.
# [3] = Water content (Karl Fischer moisture meter); settings: aconitate/citrate products, Table 4
# Source text: 6. Water content: a Karl Fischer moisture meter is used to test the water content (retained to two decimal places).
# [4] = Residual amounts of fat-soluble and water-soluble pigments (HPLC); settings: aconitate/citrate products, Table 4
# Method: 7. Residual amounts of fat-soluble pigments and water-soluble pigments: • a high-performance liquid chromatograph (HPLC) was used, and the instrument sensitivity and stability of the detector should comply with the provisions of GB/T 16631-2008. Chromatographic column: C18 column; injector: 10 µL micro-syringe; solvent: acetonitrile (HPLC grade); acquisition time: 15 min; mobile phase: 80% acetonitrile (HPLC grade) and 20% deionized water; injection volume: 1 µL; wavelength: 230 nm.
# Test: the instrument was adjusted according to the above provisions. After the baseline was stable, 0.2 µL of the sample was injected using a micro-syringe, and the integrator or chromatographic workstation was started at the same time. A pigment concentration-integral area standard curve was established by testing the integral areas of pigments with different concentrations. When the pigment content was measured, the corresponding pigment integral area was automatically given by the instrument, and the pigment concentration was obtained by comparing with the standard curve. The ratio of the pigment concentration to the sample concentration is the pigment content.
# [5] = Hardness (Shore hardness tester, GB/T 531-2008); settings: PVC plastic: 100 parts PVC resin, 35 parts plasticizer, 2 parts oxidized polyethylene wax, 5 parts octyltin maleate
# Method: The aconitates and tributyl citrate prepared in the above examples and comparative examples were added as plasticizers to PVC resin to obtain PVC plastics. […] The above raw materials were mixed and prepared using the same mixing process to obtain finished PVC products. The performance tests were performed on different plasticizers and the obtained PVC finished products in the above examples and comparative examples. […] Three points were selected for each group of samples, each point was tested once, and a median value was taken. • 2. […] Compatibility: tests were performed using a water value method. Since water molecules are polar, the compatibility between the plasticizer and water can characterize the compatibility between the plasticizer and polar materials (PVC, PLA, and nitrile rubber). When a certain plasticizer has good compatibility with water, it has good compatibility with PVC, and vice versa. In the experiment, 2.5 g of plasticizer and 25 g of acetone were added to a beaker, titrated with a burette filled with deionized water, and agitated while titrating until turbidity appears, and the volume of deionized water consumed was recorded. • 4. Glass transition temperature (Tg): the glass transition temperature was tested using a dynamic mechanical analyzer. Test conditions: nitrogen was taken as the carrier gas, at a test temperature range of -40 to 80°C, a heating rate of 3°C/min, and a frequency of 1 Hz.
# [6] = Tensile properties (GB/T 1040-2006): tensile modulus at 100%, elongation at break, elastic modulus; settings: PVC plastic with 35 parts plasticizer; 50 mm/min, 25°C
# Method: (§1) The aconitates and tributyl citrate prepared in the above examples and comparative examples were added as plasticizers to PVC resin to obtain PVC plastics. The PVC plastics include 100 parts of PVC resin, 35 parts of plasticizer, 2 parts of oxidized polyethylene wax, and 5 parts of octyltin maleate. The above raw materials were mixed and prepared using the same mixing process to obtain finished PVC products. The performance tests were performed on different plasticizers and the obtained PVC finished products in the above examples and comparative examples. […] Three points were selected for each group of samples, each point was tested once, and a median value was taken. • 2. […] Compatibility: tests were performed using a water value method. Since water molecules are polar, the compatibility between the plasticizer and water can characterize the compatibility between the plasticizer and polar materials (PVC, PLA, and nitrile rubber). When a certain plasticizer has good compatibility with water, it has good compatibility with PVC, and vice versa. In the experiment, 2.5 g of plasticizer and 25 g of acetone were added to a beaker, titrated with a burette filled with deionized water, and agitated while titrating until turbidity appears, and the volume of deionized water consumed was recorded. • 4. Glass transition temperature (Tg): the glass transition temperature was tested using a dynamic mechanical analyzer. Test conditions: nitrogen was taken as the carrier gas, at a test temperature range of -40 to 80°C, a heating rate of 3°C/min, and a frequency of 1 Hz.
# [7] = Compatibility (water value method); settings: 2.5 g plasticizer and 25 g acetone titrated with deionized water until turbidity; Table 5
# Method: as §1
# [8] = Glass transition temperature (dynamic mechanical analyzer); settings: PVC plastic with 35 parts plasticizer; -40 to 80°C, 3°C/min, 1 Hz
# Method: as §1
SMILES,Acid value [1] [KOH/g],Chromaticity [2] [Pt-Co],Water content [3] [%],Residual amounts of fat-soluble pigments [4] [ppm],Residual amounts of water-soluble pigments [4] [ppm],Hardness/Shore D [5] [Shore D],Elastic modulus [6] [MPa],Elongation at break [6] [%],Tensile modulus at 100% [6] [MPa],Compatibility [7] [mL],Tg [8] [°C]
"CCCCOC(=O)CC(O)(CC(=O)OCCCC)C(=O)OCCCC [Comparative Example 4, tributyl citrate, reference compound]",0.05,150,0.04,3054,2156,51,274.8,201.3,18.1,13.9,39.7
"CCCCOC(=O)C=C(CC(=O)OCCCC)C(=O)OCCCC [Example 26, tributyl aconitate]",0.05,70,0.04,2015,465,45,178.3,234.1,17.5,12.2,28.8
"CCCCOC(=O)C=C(CC(=O)OCCCC)C(=O)OCCCC [Comparative Example 2, tributyl aconitate, reference compound]",0.05,120,0.05,2406,2248,45,187.3,231.4,17.4,12.5,28.4
"CCCCOC(=O)C=C(CC(=O)OCCCC)C(=O)OCCCC [Example 34, tributyl aconitate]",0.05,50,0.03,428,864,41,77.9,258.1,14.7,16.1,27.7
"CCCCOC(=O)C=C(CC(=O)OCCCC)C(=O)OCCCC [Example 19, tributyl aconitate]",0.05,30,0.03,431,405,41,74.6,260.1,14.6,16.7,27.6
"CCCCOC(=O)C=C(CC(=O)OCCCC)C(=O)OCCCC [Comparative Example 3, tributyl aconitate, reference compound]",0.05,150,0.04,2864,2698,45,186.7,233.6,17.4,12.5,28.7
"CCCCOC(=O)C=C(CC(=O)OCCCC)C(=O)OCCCC [Example 23, tributyl aconitate]",0.05,60,0.03,1356,842,43,128.7,239.4,15.6,13.1,28.4
"CCCCOC(=O)C=C(CC(=O)OCCCC)C(=O)OCCCC [Example 32, tributyl aconitate]",0.05,60,0.02,382,1325,43,133.4,241.2,15.6,13.1,28.7
"CCCCOC(=O)C=C(CC(=O)OCCCC)C(=O)OCCCC [Example 30, tributyl aconitate]",0.05,65,0.04,463,1501,43,134.8,241.7,15.8,13.2,28.9
"CCCCOC(=O)C=C(CC(=O)OCCCC)C(=O)OCCCC [Example 36, tributyl aconitate]",0.05,60,0.04,836,1368,43,137.4,243.4,15.9,13.4,29.7
"CCCCOC(=O)C=C(CC(=O)OCCCC)C(=O)OCCCC [Example 33, tributyl aconitate]",0.05,100,0.04,395,4064,47,204.5,223.7,18.2,11.3,30.8
